Measurements as given in US20240368667A1, “RAPID, LABEL-FREE ANTIBIOTIC SUSCEPTIBILITY OF BACTERIA DIRECTLY FROM POSITIVE BLOOD OR BODILY FLUID/CULTURE” (priority 2021, published 2024).
Converted amounts (≈) assume the structure as drawn. Like-named read-outs stand apart in the source and are kept apart here.

Key:
P. aeruginosa = experiment: Direct flow cytometric AST (high-throughput flow cytometry, HTFC) of sucrose-recovered bacteria; format: cell-based, Pseudomonas aeruginosa; set-up: key to susceptibility classification, HTFC: (S) sensitive; (I) intermediate; (R) resistant; settings: for MIC: Pseudomonas aeruginosa, read-out: Minimum inhibitory concentration, HTFC
Experimental: AST workflow using bacteria recovered directly from positive blood culture. A 1-mL aliquot of bacteria recovered using separation method 2 was diluted 10-fold in CAMHB, the OD600 adjusted to ˜0.01, and a 50 μL aliquot distributed into each well of a 96-well plate containing CAMHB with and without ceftazidime, tobramycin, and either meropenem (E. coli and P. aeruginosa) or oxacillin (S. aureus). Following Clinical and Laboratory Standards Institute (CLSI) guidelines^33, 2% sodium chloride (NaCl) was present in wells containing oxacillin to assist in the detection of methicillin-resistant S. aureus (MRSA). […] To account for observed differences in doubling and lag times, E. coli and P. aeruginosa were incubated for 4 hours at 37° C., while S. aureus was incubated for 9 hours at 35° C. After incubation, antibiotic plates were removed from the incubator and directly stored on ice (i.e. no post-processing) until high-throughput flow cytometry (BD LSRFortessa with HTS-system, BD, Franklin Lakes, NJ). No-antibiotic controls and antibiotic-treated samples were handled identically.
MIC Determination by flow cytometry. Because antibiotic effects are observed in both the position of scatter signatures (morphology changes) and count rates (growth inhibition), a modified count rate, accounting for scatter position, was used to evaluate susceptibility. Briefly, no-antibiotic control populations (triplicate) were pooled, binned, and a convex hull boundary set at 1-standard deviation above the background (not including bins with zero counts) was drawn. […] The overlap ratio, measuring changes in morphology, was then computed by dividing the number of sample events within the no-antibiotic control boundary by the total number of events within the sample. As an increase in count rate attributed to viable bacteria in antibiotic-treated samples is not scientifically meaningful, the fractional overlap was multiplied by the minimum of the control and sample count rates to generate a modified count rate accounting for antibiotic-induced morphological changes. All modified count rates were normalized by the average of the no-antibiotic controls. For automatic MIC determination, normalized count rates corresponding to n (index of predicted MIC), n+1, n+2 were iteratively fit to a linear function with a frameshift of n+1 between iterations (FIGS. 8 and 9). […] A threshold of −0.01 instead of zero was used to mitigate the influence of small fluctuations in normalized count rates on susceptibility determinations.

E. coli 79 = experiment: Microbroth dilution MIC with and without sucrose recovery; format: cell-based, Escherichia coli; settings: MIC given as multiple of S/I/R
Experimental: Microbroth dilution for minimum inhibitory concentrations (MIC) with and without sucrose recovery. To isolate bacteria without sucrose, culture media from positive BacT/alert FA PLUS aerobic culture bottles (bioMérieux, Durham, NC) was serially diluted and plated onto LB agar (Lennox; Sigma-Aldrich, St. Louis, MO). Bacterial suspensions were prepared by resuspending colonies in CAMHB with incubation on a MaxQ 4000 incubator shaker (Thermo Fisher Scientific, Waltham, MA) at 37° C. and ˜225 rpm for 3 hours. Bacteria recovered via Method 2 were diluted 10-fold in CAMHB. Following incubation or sucrose recovery and dilution, bacterial suspensions were adjusted to ˜0.004 OD600 with CAMHB and a 50-μL aliquot distributed to each well of a 96-well plate containing CAMHB with and without clinically relevant antibiotics (2-fold dilution series). Gram-negative plates included: ceftazidime (3rd generation cephalosporin, RPI corp., Mount Prospect, IL), cefepime (4th generation cephalosporin, Chem-Impex Int'l, Wood Dale, IL), meropenem (carbapenem, Tokyo Chemical Industry, Tokyo, Japan), levofloxacin (quinolone, Alfa Aesar, Haverhill, MA), and tobramycin (aminoglycoside, MP Biomedicals LLC, Santa Ana, CA), while S. aureus plates contained: oxacillin (beta-lactam, Sigma-Aldrich, St. Louis, MO), vancomycin (glycopeptide, Santa Cruz Biotechnology, Dallas, TX), erythromycin (macrolide, Sigma-Aldrich, St. Louis, MO), clindamycin ([…]), and ciprofloxacin (fluoroquinolone, Sigma-Aldrich, St. Louis, MO). Antibiotic plates were incubated at 37° C. for 16-20 hours (gram-negative) or 35° C. for 24 hours (S. aureus), at which time, plates were removed from the incubator and visually inspected for bacterial growth. The MIC was set at the lowest antibiotic concentration at which no growth was detected.
Influence of Sucrose on Bacterial MIC. To rule out the potential effect of sucrose exposure in bacterial antibiotic susceptibility, microbroth dilution studies were performed on bacteria recovered using standard practices (i.e. plating following positive blood culture) and through selective lysis coupled with centrifugation through the sucrose cushion (Method 2).

[1] = P. aeruginosa Blood Culture B, antibiotic 4 hours (37° C.)
[2] = P. aeruginosa Blood Culture C, antibiotic 4 hours (37° C.)
[3] = P. aeruginosa PA7, antibiotic 4 hours (37° C.)
[4] = P. aeruginosa PA46, antibiotic 4 hours (37° C.)
[5] = P. aeruginosa PA49, antibiotic 4 hours (37° C.)
[6] = P. aeruginosa PA81, antibiotic 4 hours (37° C.)
[7] = P. aeruginosa PAO1, antibiotic 4 hours (37° C.)
[8] = 4 h, P. aeruginosa Blood Culture B, antibiotic 4 hours (37° C.)
[9] = 4 h, P. aeruginosa Blood Culture C, antibiotic 4 hours (37° C.)
[10] = 4 h, P. aeruginosa PA7, antibiotic 4 hours (37° C.)
[11] = 4 h, P. aeruginosa PA46, antibiotic 4 hours (37° C.)
[12] = 4 h, P. aeruginosa PA49, antibiotic 4 hours (37° C.)
[13] = 4 h, P. aeruginosa PA81, antibiotic 4 hours (37° C.)
[14] = PAO1, 4 h, P. aeruginosa PAO1, antibiotic 4 hours (37° C.)

minimum inhibitory concentration (MIC), Standard (E. coli 79; E. coli 79 recovered by standard plating) | minimum inhibitory concentration (MIC), Sucrose (E. coli 79; E. coli 79 recovered through sucrose (Method 2)) | Compound | susceptibility classification, HTFC (P. aeruginosa; [1]) | susceptibility classification, HTFC (P. aeruginosa; [2]) | susceptibility classification, HTFC (P. aeruginosa; [3]) | susceptibility classification, HTFC (P. aeruginosa; [4]) | susceptibility classification, HTFC (P. aeruginosa; [5]) | susceptibility classification, HTFC (P. aeruginosa; [6]) | susceptibility classification, HTFC (P. aeruginosa; [7]) | MIC (P. aeruginosa; [8]) | MIC (P. aeruginosa; [9]) | MIC (P. aeruginosa; [10]) | MIC (P. aeruginosa; [11]) | MIC (P. aeruginosa; [12]) | MIC (P. aeruginosa; [13]) | MIC (P. aeruginosa; [14])
 |  | CC(C)(O/N=C(\C(=O)N[C@@H]1C(=O)N2C(C(=O)[O-])=C(C[n+]3ccccc3)CS[C@H]12)c1csc(N)n1)C(=O)O [Ceftazidime, ceftazidime] | (S) | (S) | (S) | (S) | (S) | (S) | (S) | 4 µg/mL (≈ 7.32 µM) | 2 µg/mL (≈ 3.66 µM) | 8 µg/mL (≈ 14.6 µM) | 2 µg/mL (≈ 3.66 µM) | 4 µg/mL (≈ 7.32 µM) | 8 µg/mL (≈ 14.6 µM) | 1 µg/mL (≈ 1.83 µM)
 |  | C[C@@H](O)[C@H]1C(=O)N2C(C(=O)O)=C(S[C@@H]3CN[C@H](C(=O)N(C)C)C3)[C@H](C)[C@H]12 [Meropenem, meropenem] | (S) | (S) | (S) | (S) | (S) | (R) | (S) | 2 µg/mL (≈ 5.22 µM) | 0.125 µg/mL (≈ 0.326 µM) | 2 µg/mL (≈ 5.22 µM) | 1 µg/mL (≈ 2.61 µM) | 0.5 µg/mL (≈ 1.3 µM) | 8 µg/mL (≈ 20.9 µM) | 2 µg/mL (≈ 5.22 µM)
¼S | ¼S | NC[C@H]1O[C@H](O[C@H]2[C@H](O)[C@@H](O[C@H]3O[C@H](CO)[C@@H](O)[C@H](N)[C@H]3O)[C@H](N)C[C@@H]2N)[C@H](N)C[C@@H]1O [Tobramycin, tobramycin] | (S) | S | (R) | (S) | (S) | (S) | (S) | 0.25 µg/mL (≈ 0.535 µM) |  | > 16 µg/mL | 1 µg/mL (≈ 2.14 µM) | 1 µg/mL (≈ 2.14 µM) | 1 µg/mL (≈ 2.14 µM) | 2 µg/mL (≈ 4.28 µM)
